# Data published in patent US20090118242A1 (AlgoRx, priority 2002, published 2009).
# “And” between values parts separate entries of the source, which are not always exact repeats. Identical values can stand only once.
# Legend:
# [1] = system: animal models of inflammatory (formalin test) pain; settings: administered locally; cited from earlier work
# [2] = system: patients; settings: cited from earlier work
# [3] = system: subjects with osteoarthritis of the knee; experiment: Osteoarthritis of the Knee Safety Study: safety and tolerability of intra-articular purified capsaicin with local anesthetic; assay type: in vivo, human
# Method: The primary objective of the study was to evaluate the safety and tolerability of intra-articular capsaicin, when co-administered with intra-articular local anesthetic, compared to placebo, in subjects with end-stage osteoarthritis of the knee, already scheduled to receive knee replacements.
# The study was designed to include 16 evaluation subjects. […] Sixteen subjects completed the study.
# Patients were treated randomly and in double-blind fashion in four treatment groups, with each group having a progressively longer interval between the intra-articular administration of study medication and subsequent total knee replacement (2, 4, 7, and 14 days). […] Gross and microscopic pathology analysis was completed for each treatment group before the next treatment group was treated.
# (§1) Each subject had 3 study visits: a Screening Day (Day −7 to −1), the Treatment Day (Day 0), and a Post-Treatment Day (scheduled for Day +2, +4, +7, or +14). On the Treatment Day the subject was randomized, pre-treatment evaluation was performed. The patients were brought into the procedure room, and a VAS pain score was taken (0 mm—no pain, 100 mm—extreme pain). Once the patient had marked his or her pain on the card, he/she was prepped for knee cannulation. Once the cannula was placed, the patient received by intra-articular infiltration, 3 mg/kg (maximum dose of 200 mg) of 2% lignocaine into the knee scheduled to be replaced.
# (§2) VAS pain scores as well as verbal reports were taken immediately following administration, as well as prior to knee replacement surgery. No subjects discontinued from the study due to adverse events.
# [4] = design: species or system human; settings: in vivo
# Method: The pharmacokinetic parameters of Cmax, Tmax, AUC (0−tlast) and t½ were evaluated.
# [5] = system: subjects with osteoarthritis of the knee; experiment: Osteoarthritis of the Knee Safety Study: VAS pain score at the target knee; assay type: in vivo, human
# Method: as §1, §2
# On the Post-Treatment Day, study evaluation was performed followed by the scheduled knee replacement, with intra-operative bone and soft tissue biopsies performed for subsequent examination. […] This therefore left the 3 placebo and 9 active patients from the 4 day, 7 day, and 14 day cohorts.
# [6] = system: subjects undergoing transpositional osteotomy (bunionectomy); experiment: Bunionectomy Efficacy Study: VAS pain at operation site and rescue medication; assay type: in vivo, human; settings: for VAS pain score at operation site (mean +/− SEM): 1000 μg into wound, n = 11
# Method: The primary efficacy endpoint was the proportion of subjects in each treatment group requiring opioid analgesia in the first 24 hours post-operatively. The proportions were compared amongst treatment groups using the Cochran-Haenszel test. Secondary efficacy end points included: i) proportion of subjects in each treatment group requiring opioid analgesia in the first 36 hour period post-operatively (Similarly, the proportions were compared amongst treatment groups using the Cochran-Haenszel test); ii) proportion of subjects in each treatment group requiring opioid analgesia in the 10 day period post-operatively (Similarly, the proportions were compared amongst treatment groups using the Cochran-Haenszel test); iii) time to first usage of opioid analgesia in each treatment group (a survival analysis approach will be used: the product-limit (Kaplan-Meier) method will be applied to time to first usage of opioid analgesia. The median time to first usage of opioid analgesia will be estimated in both treatment groups. Pairwise comparisons will be performed to test for equality of the survival curves between the 2 treatment groups using both the log-rank and the Wilcoxon test); iv) total usage of analgesia in each treatment group (the total usage of analgesia will be compared by an analysis of variance with treatment and center as independent variables. A pairwise comparison will be performed between the treatment groups); and v) VAS, assessment of pain at the site of operation in each treatment group. (The VAS score at each time point will be compared by an analysis of variance with treatment and center as independent variables. A pairwise comparison will be performed between the treatment groups). […] The efficacy analysis was performed on the data obtained ten days postoperatively. The safety analysis was performed based on the safety data for the entire study, including the 6 week and 12 week follow-up periods. The blind was broken at the time the efficacy analysis was performed. However, the individual treatment assignment was available to the statistical analysis group only. All other personnel involved in the study, including the Investigator, study monitor and proprietary staff, remained blinded until the entire study was completed.
# The study was designed to include 40 evaluation subjects. […] Each subject had six (6) study visits: a Screening Day (Day −28 to −1), an Operation Day (Day 0), and four (4) Follow-up visits (scheduled for Days 3, 10 and weeks 6 and 12).
# On Operation Day (Day 0) the following was performed: a) Pre-operation: Prior to the initiation of an ankle block, inclusion/exclusion criteria assessment was performed. […] Immediately prior to wound closure, the Investigator slowly dripped the study medication (4 mL) from a syringe into the wound, ensuring even tissue exposure. The wound was then be closed according to normal practices and procedures.
# In the 24 hours following administration of study medication, vital signs (supine pulse rate and blood pressure) were recorded at 1, 2, 4 and 24 hours post administration. VAS assessment of pain at the operation site was performed at 1, 4, 8, 12 and 24 hours post administration. In those instances where VAS measurements coincide with blood sampling procedures, the VAS assessment was performed first. […] The quantity of each blood sample was 10 mL. Laboratory safety assessments, e.g., haematology, biochemistry, urinalysis were performed at 24 hours post administration. Adverse events were spontaneously reported by the subject and recorded. Rescue analgesia medication was provided to the subject if required (initially diclofenac 50 mg, repeated at 8-hourly intervals if necessary). When diclofenac was judged by the Investigator to provide inadequate pain relief then the subject was provided with alfentanil 1 mg, repeated at 6 hourly intervals, if necessary.
# [7] = system: rats; settings: systemic, final doses of 25 mg/kg or less; cited from earlier work
# [8] = 10, 100, 300 μg intra-articular
# [9] = 1000 μg prior to wound closure, n=11
smiles,measurement,setting,value
CN(C)CCC=C1c2ccccc2CCc2ccccc21 [amitriptyline],local antinociceptive action,[1],produced local antinociceptive actions
CNCCCN1c2ccccc2CCc2ccccc21 [desipramine],local antinociceptive action,[1],produced local antinociceptive actions
CN1C(C(=O)Nc2ccccn2)=C(O)c2ccccc2S1(=O)=O [piroxicam],patients experiencing gross bleeding and ulceration,[2],up to 4%
"COc1cc(CNC(=O)CCCC/C=C/C(C)C)ccc1O [purified capsaicin, N-(4-hydroxy-3-methoxybenzyl)-8-methylnon-trans-6-enamide]","duration of post-administration (hyper)algesic pain, individual subject",[3]; 100 μg dose group,9 min
same,"duration of post-administration (hyper)algesic pain, individual subjects",[3]; 300 μg dose group,17 minutes and 25 minutes (2×) and 42 minutes
same,effects on laboratory safety parameters or vital signs,[3]; [8],no treatment related effects on laboratory safety parameters or vital signs
same,"effects on soft tissue, cartilage, or bone upon histopathological examination",[3]; [8],"no treatment related effects on soft tissue, cartilage, or bone"
same,"erythema, edema, or hemorrhage at the site of injection",[3]; [8],"no treatment related signs of erythema, edema, or hemorrhage"
same,leakage of study drug from the joint space,[3]; [8],low leakage
same,systemic side effects,[3]; [8],No treatment related systemic side effects
same,gross and microscopic pathology,[3]; knee tissue at replacement 2-14 days after dose,normal
same,plasma concentrations in the 10 μg dose group compared with the 100 μg or 300 μg dose groups,[4],clearly lower
same,"VAS reduction, prior to administration versus day of surgery","[5]; 9 active patients of the 4, 7 and 14 day cohorts, 10-300 μg pooled",62±14%
same,"median decrease from baseline to pre-operative time point in VAS for pain at target knee, versus placebo",[5]; all 3 capsaicin dose groups,substantially greater
same,treatment related indication of efficacy (VAS),"[5]; any of the dose levels (10 μg, 100 μg, 300 μg)",No clear treatment related indication of efficacy
same,VAS pain score at operation site (mean +/− SEM),[6]; 8 hr,5.5 +/− 2.3
same,VAS pain score at operation site (mean +/− SEM),[6]; 12 hr,8.2 +/− 3.8
same,VAS pain score at operation site (mean +/− SEM),[6]; 24 hr,1.9 +/− 1.0
same,VAS pain score at operation site (mean +/− SEM),[6]; 48 hr,5.9 +/− 2.5
same,subjects who did not rescue in 72 hours,[6]; [9],6 subjects
same,time at which individual subject required rescue,[6]; [9],1 h and 4 h and 5 h and 8 h and 12 h
same,effect on pain threshold,[7],did not elevate the pain threshold above normal range
